We go through one molecule from patent publication US7378080B2, “Methods for identifying compounds for motion sickness, vertigo and other disorders related to balance and the perception of gravity” (Neurosciences Research Foundation, Inc., priority 1999, dated 2008).

The test system of this assay is Canton-S flies. The assay can be described thus: Geotaxis maze assay of Drosophila. It counts as in vivo, Drosophila melanogaster. Here is the method:
These strains and a standard laboratory wild-type strain (Canton-S, obtained from the Bloomington Drosophila Stock Center, Indiana University at Bloomington) were then tested in a geotaxis maze constructed according to the design of Hirsch (J. Comp. Physiol. Psychol. 52:304-308 (1959)) as modified by McMillan and McGuire (Behav. Genet. 22:557-573 (1992)), shown in FIG. 1. The geotaxis maze was fashioned from plexiglass and the maze chambers were hollowed out as semi-circular depressions in the slab, such that when the two slabs were bolted together a circular tube was formed in maze. This design thus made it possible to observe the entire time course of the assay. Additionally, this maze is easy to clean and standardize. For each strain, a geotaxis score was determined. In separate measurements, twenty to thirty flies of each strain were loaded into a starting tube on the left (see FIG. 1). The maze was set upright in front of a light source on the right, and, after turning on the light, each strain was scored according to the distribution of the flies in the nine collecting tubes on the right. A perfect score for positive geotaxis would be 1, for negative geotaxis, 9, and for an even distribution, 5. The geotaxis measurments were repeated 3-5 times for each strain (see Table 1). […]

SMILES strings stand for the structures.

For the molecule `OCCOCCN1CCN(C(c2ccccc2)c2ccc(Cl)cc2)CC1` (centres unmarked) [hydroxyzine], the “Effect on geotactic behavior (in words)” value (Canton-S flies fed with the histamine receptor antagonist) is “Extreme negative geotaxis is induced”. Further, the Geotaxis score (wild-type Canton-S flies fed for 2 hr on 20 mg/ml hydroxyzine, score scale 1 = positive geotaxis, 5 = even distribution, 9 = negative geotaxis, N=1 (15-25 flies), untreated Canton-S 5.53) stood at 8.50.
